Our source for the % of control and % activity values is ChEMBL document CHEMBL5465560, “Selectivity Literature for EUbOPEN Chemogenomic Library” (2024).

Assay [1] has as its target Death-associated protein kinase 2 (Homo sapiens) (UniProt Q9UIK4). The assay is described as follows: Selectivity interaction (KinomeScan (DiscoverX)) EUB0000607a DAPK2. Conditions: at 10 µM.
Assay [2] concerns the target TRAF2 and NCK-interacting protein kinase (Homo sapiens) (UniProt Q9UKE5). Conditions: at 10 µM.
In assay [3] the target is T1, Bone morphogenetic protein receptor type-2 (Homo sapiens) (UniProt Q13873).
T1 sequence (whole entry): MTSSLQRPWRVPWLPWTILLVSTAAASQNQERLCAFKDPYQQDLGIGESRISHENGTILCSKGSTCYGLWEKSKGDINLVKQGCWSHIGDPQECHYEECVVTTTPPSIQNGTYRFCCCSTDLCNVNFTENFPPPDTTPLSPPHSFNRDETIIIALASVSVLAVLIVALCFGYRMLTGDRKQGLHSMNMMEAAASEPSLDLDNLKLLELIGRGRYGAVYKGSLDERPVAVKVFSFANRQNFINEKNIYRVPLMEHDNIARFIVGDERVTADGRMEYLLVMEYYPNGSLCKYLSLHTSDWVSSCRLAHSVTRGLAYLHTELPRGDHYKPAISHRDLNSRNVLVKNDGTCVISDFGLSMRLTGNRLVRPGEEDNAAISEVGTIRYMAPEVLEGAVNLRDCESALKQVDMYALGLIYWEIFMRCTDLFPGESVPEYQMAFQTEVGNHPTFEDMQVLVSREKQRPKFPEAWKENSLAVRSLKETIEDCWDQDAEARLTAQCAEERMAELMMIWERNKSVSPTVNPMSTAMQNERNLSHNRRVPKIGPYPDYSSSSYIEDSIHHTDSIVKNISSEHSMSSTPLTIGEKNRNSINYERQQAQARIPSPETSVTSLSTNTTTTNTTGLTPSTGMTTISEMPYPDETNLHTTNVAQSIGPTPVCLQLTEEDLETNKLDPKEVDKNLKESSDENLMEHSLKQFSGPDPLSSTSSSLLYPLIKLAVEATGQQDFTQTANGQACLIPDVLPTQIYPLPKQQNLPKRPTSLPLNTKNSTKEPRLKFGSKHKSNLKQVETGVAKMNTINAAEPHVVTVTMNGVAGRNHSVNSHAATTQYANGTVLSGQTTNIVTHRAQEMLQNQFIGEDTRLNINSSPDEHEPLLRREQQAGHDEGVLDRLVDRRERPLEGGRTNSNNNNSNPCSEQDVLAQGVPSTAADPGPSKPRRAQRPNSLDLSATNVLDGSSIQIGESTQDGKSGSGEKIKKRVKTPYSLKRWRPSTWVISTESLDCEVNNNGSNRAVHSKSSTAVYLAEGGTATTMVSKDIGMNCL
In words: Selectivity interaction (KinomeScan (DiscoverX)) EUB0000666a BMPR2. The conditions noted are these: at 10 µM.

Assay [4] has as its target Ribosomal protein S6 kinase alpha-3 (Homo sapiens, UniProt P51812). The assay is described as follows: Selectivity interaction (KinomeScan (DiscoverX)) EUB0000666a RPS6KA3. The conditions noted are these: at 10 µM.
In assay [5] the target is Histone-lysine N-methyltransferase 2C (Homo sapiens) (UniProt Q8NEZ4). Conditions: at 1 µM.
The subject of assay [6] is Phosphatidylinositol 4,5-bisphosphate 3-kinase catalytic subunit alpha isoform (Homo sapiens), P42336 [I800L]. In words: (§1) Selectivity interaction (KinomeScan (DiscoverX)) EUB0001619a PIK3CA. The conditions noted are these: at 1 µM.
For assay [7], the system named is Phosphatidylinositol 4,5-bisphosphate 3-kinase catalytic subunit alpha isoform (Homo sapiens), P42336 [Q546K]. The assay is described as §1. Conditions: at 1 µM.
Phosphatidylinositol 4,5-bisphosphate 3-kinase catalytic subunit alpha isoform (Homo sapiens), P42336 [Q546K], sequence (P42336 whole entry Q546K, canonical isoform): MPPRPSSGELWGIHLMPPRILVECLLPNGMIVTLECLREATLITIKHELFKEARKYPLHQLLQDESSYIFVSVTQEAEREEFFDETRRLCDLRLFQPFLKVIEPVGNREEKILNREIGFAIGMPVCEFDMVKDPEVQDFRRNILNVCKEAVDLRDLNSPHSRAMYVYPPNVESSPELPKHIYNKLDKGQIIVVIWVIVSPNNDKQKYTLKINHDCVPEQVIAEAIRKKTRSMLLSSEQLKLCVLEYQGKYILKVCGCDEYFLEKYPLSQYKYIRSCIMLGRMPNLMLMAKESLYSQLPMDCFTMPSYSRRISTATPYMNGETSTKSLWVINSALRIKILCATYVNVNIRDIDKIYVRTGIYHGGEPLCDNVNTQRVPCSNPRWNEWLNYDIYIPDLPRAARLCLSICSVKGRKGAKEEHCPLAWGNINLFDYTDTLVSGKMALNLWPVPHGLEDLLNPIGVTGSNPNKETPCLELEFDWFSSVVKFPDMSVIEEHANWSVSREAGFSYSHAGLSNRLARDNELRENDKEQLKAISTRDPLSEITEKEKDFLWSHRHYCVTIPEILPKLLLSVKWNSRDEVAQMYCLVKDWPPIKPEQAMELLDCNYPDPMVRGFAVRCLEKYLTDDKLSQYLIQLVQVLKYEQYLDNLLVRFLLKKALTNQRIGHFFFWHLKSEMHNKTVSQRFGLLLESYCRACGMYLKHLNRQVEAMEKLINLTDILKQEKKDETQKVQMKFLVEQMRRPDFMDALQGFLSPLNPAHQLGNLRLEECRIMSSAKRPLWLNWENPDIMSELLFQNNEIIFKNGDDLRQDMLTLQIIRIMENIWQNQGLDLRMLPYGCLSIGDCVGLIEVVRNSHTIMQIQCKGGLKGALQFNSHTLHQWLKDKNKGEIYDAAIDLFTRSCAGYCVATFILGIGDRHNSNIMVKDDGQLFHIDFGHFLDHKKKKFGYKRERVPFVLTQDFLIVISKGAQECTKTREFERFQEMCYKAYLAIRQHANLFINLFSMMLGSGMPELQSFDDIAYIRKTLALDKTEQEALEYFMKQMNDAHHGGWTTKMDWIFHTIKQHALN
Assay [8] relates to Phosphatidylinositol 4,5-bisphosphate 3-kinase catalytic subunit alpha isoform (Homo sapiens), P42336 [E545A]. The assay is described as §1. Conditions: at 1 µM.
Phosphatidylinositol 4,5-bisphosphate 3-kinase catalytic subunit alpha isoform (Homo sapiens), P42336 [E545A], sequence (P42336 whole entry E545A, canonical isoform): as the sequence (P42336 whole entry Q546K, canonical isoform) above, with E545A, K546Q counted along it
The subject of assay [9] is Phosphatidylinositol 4,5-bisphosphate 3-kinase catalytic subunit alpha isoform (Homo sapiens), P42336 [E545K]. The assay is described as §1. The conditions noted are these: at 1 µM.
Assay [10] deals with Phosphatidylinositol 4,5-bisphosphate 3-kinase catalytic subunit alpha isoform (Homo sapiens), P42336 [H1047L]. The assay is described as §1. The conditions noted are these: at 1 µM.
The subject of assay [11] is Phosphatidylinositol 4,5-bisphosphate 3-kinase catalytic subunit alpha isoform (Homo sapiens), P42336 [M1043I]. The description is as §1. Conditions: at 1 µM.
The test system of assay [12] is Phosphatidylinositol 4,5-bisphosphate 3-kinase catalytic subunit alpha isoform (Homo sapiens), P42336 [H1047Y]. The assay is described as §1. The conditions noted are these: at 1 µM.
Assay [13] has as its target Phosphatidylinositol 4,5-bisphosphate 3-kinase catalytic subunit alpha isoform (Homo sapiens) (UniProt P42336). The description is as §1. Conditions: at 1 µM.
For assay [14], the system named is Phosphatidylinositol 4,5-bisphosphate 3-kinase catalytic subunit alpha isoform (Homo sapiens), P42336 [C420R]. The description is as §1. Conditions: at 1 µM.
Assay [15] relates to Phosphatidylinositol 4,5-bisphosphate 3-kinase catalytic subunit alpha isoform (Homo sapiens), P42336 [E542K]. Described as §1. Conditions: at 1 µM.
Phosphatidylinositol 4,5-bisphosphate 3-kinase catalytic subunit alpha isoform (Homo sapiens), P42336 [E542K], sequence (P42336 whole entry E542K, canonical isoform): as the sequence (P42336 whole entry Q546K, canonical isoform) above, with E542K, K546Q counted along it
Assay [16] deals with T2, Mitogen-activated protein kinase kinase kinase kinase 2 (Homo sapiens) (UniProt Q12851).
T2 sequence (whole entry): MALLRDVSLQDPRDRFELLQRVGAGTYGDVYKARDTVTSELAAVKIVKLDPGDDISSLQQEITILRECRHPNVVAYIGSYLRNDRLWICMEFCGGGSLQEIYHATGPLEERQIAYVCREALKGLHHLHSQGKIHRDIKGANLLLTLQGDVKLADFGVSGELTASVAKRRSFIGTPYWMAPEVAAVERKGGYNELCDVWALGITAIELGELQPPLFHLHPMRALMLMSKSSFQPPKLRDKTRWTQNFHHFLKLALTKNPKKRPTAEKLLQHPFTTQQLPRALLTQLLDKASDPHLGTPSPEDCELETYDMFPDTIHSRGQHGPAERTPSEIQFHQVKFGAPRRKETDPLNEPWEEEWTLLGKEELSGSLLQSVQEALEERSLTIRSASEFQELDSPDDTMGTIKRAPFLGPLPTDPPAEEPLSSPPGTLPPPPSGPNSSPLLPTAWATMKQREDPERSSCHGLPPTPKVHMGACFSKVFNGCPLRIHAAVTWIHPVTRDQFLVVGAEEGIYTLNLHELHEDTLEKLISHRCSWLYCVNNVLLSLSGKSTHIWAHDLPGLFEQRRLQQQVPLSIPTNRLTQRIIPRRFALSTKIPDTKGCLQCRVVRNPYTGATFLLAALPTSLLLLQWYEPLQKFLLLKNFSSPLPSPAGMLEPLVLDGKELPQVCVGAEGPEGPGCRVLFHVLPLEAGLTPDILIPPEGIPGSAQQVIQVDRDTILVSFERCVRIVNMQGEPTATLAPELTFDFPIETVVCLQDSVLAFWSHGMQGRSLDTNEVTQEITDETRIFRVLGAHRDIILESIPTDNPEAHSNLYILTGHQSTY
The assay is described as follows: Selectivity interaction (ProQinase) EUB0000171b MAP4K2.

Death-associated protein kinase 2 (Homo sapiens), sequence (Q9UIK4 whole entry, looked up): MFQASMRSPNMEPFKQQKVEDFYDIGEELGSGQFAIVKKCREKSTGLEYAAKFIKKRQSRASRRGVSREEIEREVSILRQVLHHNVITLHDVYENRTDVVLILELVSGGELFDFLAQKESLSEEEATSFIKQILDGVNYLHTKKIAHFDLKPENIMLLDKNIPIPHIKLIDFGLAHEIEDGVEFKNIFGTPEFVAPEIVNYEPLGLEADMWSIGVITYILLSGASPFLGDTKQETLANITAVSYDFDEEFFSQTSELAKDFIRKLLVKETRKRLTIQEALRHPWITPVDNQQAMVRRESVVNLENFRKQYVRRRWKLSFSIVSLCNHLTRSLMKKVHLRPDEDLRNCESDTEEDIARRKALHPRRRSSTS
Phosphatidylinositol 4,5-bisphosphate 3-kinase catalytic subunit alpha isoform (Homo sapiens), sequence (P42336 whole entry, canonical isoform): as the sequence (P42336 whole entry Q546K, canonical isoform) above, with K546Q counted along it

Regarding `CNC(=O)Nc1ccc(-c2nc(N3CC4CCC(C3)O4)c3cnn(C4CCC5(CC4)OCCO5)c3n2)cc1`, in assay [1], the % of control stood at 100%.

In [2], `Cc1cc([C@@H](C)Nc2ccccc2C(=O)O)c2nc(N3CCOCC3)cc(=O)n2c1` [AZD-6482] came in with a % of control of 98%.

In the case of `O=C(NOC[C@H](O)CO)c1ccc(F)c(F)c1Nc1ccc(I)cc1F`, the % of control in assay [3] was found to be 81%; in [4], 100%.

With `CNCCN1CCC(c2cc(CN(C)C(=O)c3cccc(Oc4ccccc4)c3)ccn2)CC1`, the % activity in [5] was above 90%.

Take `N#Cc1cccc(-c2c[nH]c3ncnc(N4CCOCC4)c23)c1`: the % of control in assay [6] was 88%; in [7], 97%; in assay [8], 100%; in assay [9] it was 96%; in assay [10] it was 90%; in assay [11], 100%. Also, the % of control in assay [12] is 76%; in assay [13] it was 100%; in assay [14], 95%; in assay [15] it was 90%.

As for `C=CC(=O)Nc1cccc(C(=O)Nc2ccc(Nc3cc(-c4[nH]c(SC)nc4C)ccn3)cc2)c1`, the % of control in [16] (at 1 µM) was found to be 89%; in assay [16] (at 5 µM), 50%.
